{
  "source": "patent US20200179312A1",
  "about": "“ANALOGUES OF CYSTEAMINE AS THERAPEUTIC AGENTS FOR CYSTIC FIBROSIS” (I.E.R.F.C. EUROPEAN INSTITUTE FOR CYSTIC FIBROSIS RESEARCH, priority 2018, published 2020)",
  "key": {"TNF alpha, MIP-2": {"tested_on": "TNF alpha, MIP-2", "assay": "ELISA of inflammatory cytokines in tissues of CftrF508del mice", "type": "in vivo", "conditions": "intestinal and lung tissues", "excerpt": "(§1) CF mice homozygous for the delF508-CFTR mutation (abbreviated CftrF508del) in the 129/FVB outbred background (CftrtmlEUR, F508del, FVB/129) were obtained from Erasmus Medical Center Rotterdam, The Netherlands (CF coordinated action program EU FP6 LSHM-CT-2005-018932). These studies and procedures were approved by the local Ethics Committee for Animal Welfare (IACUC No 713). Young adult CF mice and their wild-type (wt) littermates were housed in static isolator cages at the animal care specific pathogen-free facility of Charles River (Calco, Italy). CftrF508del mice were treated with daily intraperitoneal injections of cysteamine (100 μl of 0.05 M in PBS) (Sigma Aldrich, M9768) or IE1 (100 μl of 0.075-0.05-0.025-0.0125 M, in PBS) for 5 d or with cysteamine (5 d) or IE1 different concentrations followed by 10 d or 20 d of PBS alone (n=5 mice per group) (19,20).\nELISA. ELISA was performed on tissue samples using standard ELISA kits (R&D Systems) for TNF-α, Mip2a. According to the manufacturer's instructions, samples were read in triplicate at 450 nm in a microplate Reader (Bio-Rad, Milan, Italy) using Microplate Manager 5.2.1 software.\nValues were normalized to protein concentration evaluated by Bradford analysis."}, "CFTR": {"biological_target": "CFTR (Homo sapiens, UniProt P13569, DEL508-508)", "sequence (P13569 with tags, fused parts or gaps DEL508-508)": "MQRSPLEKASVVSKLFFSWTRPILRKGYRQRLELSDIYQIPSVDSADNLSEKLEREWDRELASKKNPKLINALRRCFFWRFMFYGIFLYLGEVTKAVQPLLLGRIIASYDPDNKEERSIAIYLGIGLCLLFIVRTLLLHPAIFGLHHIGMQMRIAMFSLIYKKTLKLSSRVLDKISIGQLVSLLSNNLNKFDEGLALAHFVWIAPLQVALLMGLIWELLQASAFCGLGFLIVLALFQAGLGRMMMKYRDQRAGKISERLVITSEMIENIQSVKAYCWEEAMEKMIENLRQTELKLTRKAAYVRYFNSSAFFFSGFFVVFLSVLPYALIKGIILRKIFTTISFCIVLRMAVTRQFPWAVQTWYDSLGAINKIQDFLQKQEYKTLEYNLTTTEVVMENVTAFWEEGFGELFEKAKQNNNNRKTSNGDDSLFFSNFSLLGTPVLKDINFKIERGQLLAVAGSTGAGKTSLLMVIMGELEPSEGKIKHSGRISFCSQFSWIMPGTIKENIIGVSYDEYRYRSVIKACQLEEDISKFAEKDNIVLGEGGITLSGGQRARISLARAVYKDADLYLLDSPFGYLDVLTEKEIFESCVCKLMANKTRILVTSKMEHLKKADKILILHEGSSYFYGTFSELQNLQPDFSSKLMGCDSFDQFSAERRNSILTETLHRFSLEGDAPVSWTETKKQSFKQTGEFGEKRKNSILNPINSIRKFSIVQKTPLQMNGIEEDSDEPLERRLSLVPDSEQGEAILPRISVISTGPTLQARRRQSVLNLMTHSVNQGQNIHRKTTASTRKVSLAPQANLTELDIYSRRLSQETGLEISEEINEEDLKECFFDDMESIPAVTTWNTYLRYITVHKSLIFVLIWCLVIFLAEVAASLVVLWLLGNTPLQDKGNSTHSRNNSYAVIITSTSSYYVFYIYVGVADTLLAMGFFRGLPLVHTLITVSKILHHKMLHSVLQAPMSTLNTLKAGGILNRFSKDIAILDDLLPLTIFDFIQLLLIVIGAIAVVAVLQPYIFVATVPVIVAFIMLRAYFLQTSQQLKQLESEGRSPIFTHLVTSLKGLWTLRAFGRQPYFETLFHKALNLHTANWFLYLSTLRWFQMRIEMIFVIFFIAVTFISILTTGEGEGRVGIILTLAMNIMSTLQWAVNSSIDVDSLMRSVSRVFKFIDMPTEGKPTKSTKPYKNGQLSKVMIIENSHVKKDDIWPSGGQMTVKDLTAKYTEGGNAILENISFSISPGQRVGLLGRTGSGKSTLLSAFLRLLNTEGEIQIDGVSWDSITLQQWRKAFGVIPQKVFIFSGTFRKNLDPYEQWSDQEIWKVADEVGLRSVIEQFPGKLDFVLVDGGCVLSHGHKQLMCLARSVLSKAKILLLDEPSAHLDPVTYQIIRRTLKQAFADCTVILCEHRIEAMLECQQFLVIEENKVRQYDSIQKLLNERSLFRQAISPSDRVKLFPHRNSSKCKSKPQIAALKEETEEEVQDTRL", "assay": "Immunoblot detection of CFTR in nasal primary cells", "type": "cell-based", "parameters": "Freshly isolated brushed nasal epithelial cells were collected by nasal brushing; endogenous in cells; host or cells: primary nasal epithelial cells from F508del-homozygous CF patients", "excerpt": "(§2) Freshly isolated brushed nasal epithelial cells were collected by nasal brushing, as previously described (21, 21) from 10 F508del-CFTR homozygous CF patients and from 5 non-CF healthy volunteers recruited from staff at the same time points. Both patients and healthy volunteers gave written informed consent. […] Brushes with cells were immediately transferred into RPMI 1640 medium (Invitrogen) containing 1% penicillin-streptomycin (Lonza, 17-602E), in 15-ml sterilized tubes. The tubes were incubated at 37° C. for 2 h on a thermo shaker, to remove all cell from brushes; the brushes were then removed and the cells centrifuged at 800×g (2000 rpm) for 20 min. The supernatant fractions were discarded and the cell pellet treated with […] of trypsin-versene (EDTA) solution (Lonza, 17-161) for 4 min at 37° C. to disaggregate possible cell clusters. Trypsin solution was inactivated by adding 3 ml of serum-free Bronchial Epithelial cell Growth Medium BEGM (Clonetics, Lonza, CC3170). After centrifugation at 800×g (2000 rpm) for 10 min, cells were placed in CELLC T 25 flasks (Sarstedt Ltd, CS300) with 10 ml of BEGM medium. Nonspecific epithelial cells were removed during the daily cell washing and medium changes.\n(§3) The proteins of cell lines lysates or lung or small intestine homogenates, obtained from treated and untreated cells or mice, were quantified by a Bio-Rad protein assay to ensure equal protein loading before immunoblot analysis. Fifty micrograms of proteins were loaded in each lane. Antibodies against SQSTM1, (Sigma Aldrich,P0067) 1:1000, BECN1 (Abcam, ab58878), 1:1000, CFTR clone CF3 (Abcam, ab2784) 1:1000 or anti-CFTR antibody 660 1:1000, Phospho-p44/42 MAPK (Erk1/2) (Thr202/Tyr204) (Cell Signaling Technology, #91101) 1:1000, TG2 (CUB7402, NEOMARKER) 1:1000 were used. Normalization was performed by probing the membrane with anti-β-actin (Cell Signaling, #4970) 1:1000 or anti-α-tubulin (Cell Signaling Technology, 2148) 1:1000."}, "[1]": {"tested_on": "BECN1, (phospho)p42/44 MAPK", "assay": "Immunoblot of whole homogenates from intestinal and lung tissues of CftrF508del mice", "type": "in vivo", "excerpt": "as §1\nThe proteins of cell lines lysates or lung or small intestine homogenates, obtained from treated and untreated cells or mice, were quantified by a Bio-Rad protein assay to ensure equal protein loading before immunoblot analysis. Fifty micrograms of proteins were loaded in each lane. […]"}, "[2]": {"tested_on": "BECN1, SQSTM1/p62, (phospho)p42/44 MAPK", "assay": "Immunoblot of autophagy and inflammation markers in nasal primary cells", "type": "cell-based, human", "conditions": "0.1 μM", "excerpt": "as §2, §3"}, "TG2": {"biological_target": "T1, TG2 (Homo sapiens, UniProt P21980)", "T1 sequence (P21980 1-687)": "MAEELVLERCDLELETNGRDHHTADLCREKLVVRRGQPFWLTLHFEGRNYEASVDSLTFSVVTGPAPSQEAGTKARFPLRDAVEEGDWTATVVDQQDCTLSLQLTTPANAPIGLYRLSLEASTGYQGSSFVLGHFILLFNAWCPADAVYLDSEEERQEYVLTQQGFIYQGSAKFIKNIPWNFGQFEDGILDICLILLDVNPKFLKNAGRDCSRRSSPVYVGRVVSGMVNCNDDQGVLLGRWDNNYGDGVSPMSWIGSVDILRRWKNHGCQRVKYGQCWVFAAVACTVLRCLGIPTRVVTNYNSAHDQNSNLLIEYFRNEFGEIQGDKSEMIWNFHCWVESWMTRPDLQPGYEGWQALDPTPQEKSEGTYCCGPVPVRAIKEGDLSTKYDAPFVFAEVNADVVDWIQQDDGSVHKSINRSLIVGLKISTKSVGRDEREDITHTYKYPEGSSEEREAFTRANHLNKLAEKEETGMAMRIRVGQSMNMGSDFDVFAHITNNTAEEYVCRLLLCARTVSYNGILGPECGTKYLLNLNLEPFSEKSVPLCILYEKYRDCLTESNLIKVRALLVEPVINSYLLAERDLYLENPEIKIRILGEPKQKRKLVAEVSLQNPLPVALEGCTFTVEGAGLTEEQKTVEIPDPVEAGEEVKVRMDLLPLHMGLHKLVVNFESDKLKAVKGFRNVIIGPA", "assay": "Inhibition of the PDI activity of TG2", "type": "biochemical"}},
  "data": [
    {"smiles": "NCCCS", "note": "[IE1, 3-aminopropane-1-thiol]", "values": [
      {"measurement": "MIP-2", "setting": "TNF alpha, MIP-2", "result": "decrease principal inflammatory cytokines"},
      {"measurement": "TNF alpha", "setting": "TNF alpha, MIP-2", "result": "decrease principal inflammatory cytokines"},
      {"measurement": "PM-resident CFTR protein", "setting": "CFTR; 0.1 μM", "result": "a sizeable fraction of the channel resided at the PM"},
      {"measurement": "PM-resident CFTR protein after washout", "setting": "CFTR; 0.1 μM, 24 h of washout", "result": "maintained"},
      {"measurement": "PM-resident CFTR protein after washout", "setting": "CFTR; 48 h of washout", "result": "decreases"},
      {"measurement": "PM-resident CFTR protein after washout with EGCG added", "setting": "CFTR; 48 h of washout, EGCG added", "result": "completely maintained"},
      {"measurement": "BECN1 in whole homogenates", "setting": "[1]", "result": "able to restore BECN1"},
      {"measurement": "Biomarkers (phospho)p42/44 MAPK in whole homogenates", "setting": "[1]", "result": "decrease biomarkers (phospho)p42/44 MAPK"},
      {"measurement": "BECN1 level", "setting": "[2]", "result": "able to restore BECN1"},
      {"measurement": "Inflammation biomarkers (phospho)p42/44 MAPK", "setting": "[2]", "result": "decrease"},
      {"measurement": "p62 levels", "setting": "[2]", "result": "reduce p62 levels"},
      {"measurement": "Effect on (phospho)p42/44 MAPK after 48 h in presence of EGCG", "setting": "[2]; 48 h, EGCG", "result": "maintained"},
      {"measurement": "Effect on BECN1 and p62 after 48 h with EGCG addition", "setting": "[2]; 48 h, EGCG addition", "result": "preserved"},
      {"measurement": "Effect on (phospho)p42/44 MAPK after 48 h", "setting": "[2]; after 48 h", "result": "completely lost"},
      {"measurement": "Effect on BECN1 and p62 after 48 h", "setting": "[2]; after 48 h", "result": "disappears"},
      {"measurement": "Ability to inhibit the PDI activity of TG2", "setting": "TG2", "result": "confirmed"}
    ]}
  ]
}
